Experimental data from US8710252B2, “Hepodxilin analog enantiomers” (priority 2006, dated 2014).
Entries after “also recorded” stand apart in the source; their conditions may differ.

Target: T1, Ga14-DBD-PPAR gamma-LBD fusion protein (Homo sapiens, UniProt P37231)
T1 construct: expressed in transfected cells; host or cells: mouse embryonic fibroblasts (MEFs) or ME3 cells
T1 sequence (P37231 238-503 limits assumed): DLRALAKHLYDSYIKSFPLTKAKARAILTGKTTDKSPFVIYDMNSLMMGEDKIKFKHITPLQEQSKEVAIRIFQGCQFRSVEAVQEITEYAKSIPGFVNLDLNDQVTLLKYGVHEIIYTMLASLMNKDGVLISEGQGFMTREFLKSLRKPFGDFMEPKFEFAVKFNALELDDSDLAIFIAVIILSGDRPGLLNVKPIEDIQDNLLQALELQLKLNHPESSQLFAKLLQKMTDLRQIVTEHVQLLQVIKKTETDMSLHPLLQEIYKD
Experiment: PPAR gamma transactivation assay (Gal4-PPAR gamma LBD / UASx4-TK-luc reporter)
Format: cell-based
Text: The UASx4-TK-luc reporter construct (where UAS refers to “upstream activator sequence”) contains four Ga14-responsive elements. The plasmid Ga14-PPAR gammaLBD encodes a Ga14-DBD-PPAR gamma-LBD fusion protein (i.e. the DNA-binding domain, DBD, of Ga14 fused to the ligand-binding domain, LBD, of PPAR gamma) capable of transactivating the UASx4-TK-luc reporter plasmid by binding to the UAS. The CMV-beta-galactosidase plasmid (where CMV is cytomegalovirus) was used for normalization of experimental values.
The cells were replated, typically in 24 well plates, so that at the time of transfection the cells were 50-70% confluent.
Briefly, per well in a 24 well plate, UASx4TKIuc (0.2 microg) Ga14-PPAR gammaLBD (or pM-hPPAR gamma-LBD; 0.1 microg) and CMV-beta-galactosidase (0.05 microg) in 30 μL DMEM (free of serum and antibiotics) was mixed with 30 microL DMEM (free of serum and antibiotics) containing 1 microL metafectenein. The mixture was incubated at room temperature for 20 min to allow formation of nucleic acid-lipid complexes and then approximately 60 micros was added to each well containing the 50-70% confluent cells. […] Cells were harvested after 12-24 hours and luciferase and beta-galactosidase activities were measured according to standard protocols.
Each experiment was carried out with triplicate samples with 0.1, 1 or 10 microM racemate or purified enantiomer.

Row | PPAR Activation as % of positive control (Avandia) (Experiment 1, 0.1 microM) | PPAR Activation as % of positive control (Avandia) (Experiment 1, 1 microM) | PPAR Activation as % of positive control (Avandia) (Experiment 1, 10 microM) | PPAR Activation as % of positive control (Avandia) (Experiment 2, 0.1 microM) | PPAR Activation as % of positive control (Avandia) (Experiment 2, 1 microM) | PPAR Activation as % of positive control (Avandia) (Experiment 3, 0.1 microM) | PPAR Activation as % of positive control (Avandia) (Experiment 3, 1 microM) | PPAR gamma transactivation, result in words | PPAR Activation as % of positive control (Avandia) (10 microM racemate, Table 3) | SMILES | PPAR Activation as % of positive control (Avandia) (Experiment 2, 10 microM) | PPAR Activation as % of positive control (Avandia) (Experiment 3, 10 microM)
1 | 5 +/− 1 % of positive control (Avandia) | 11 +/− 1 % of positive control (Avandia) | 55 +/− 8 % of positive control (Avandia) | 4 +/− 1 % of positive control (Avandia) | 4 +/− 1 % of positive control (Avandia) | 7 +/− 3 % of positive control (Avandia) | 11 +/− 2 % of positive control (Avandia) |  |  | CCCCC/C=C\CC1CC1/C=C/C(O)C/C=C\CCCC(=O)OC (stereo not drawn) [Compound E, 8R-hydroxy-11S,12S-cyclopropyl-eicosa-5Z,9E,14Z-trienoic acid methyl ester] | 14 +/− 2 % of positive control (Avandia) | 27 +/− 7 % of positive control (Avandia)
2 | 17 +/− 2 % of positive control (Avandia) | 57 +/− 6 % of positive control (Avandia) |  | 7 +/− 1 % of positive control (Avandia) | 35 +/− 5 % of positive control (Avandia) | 6 +/− 2 % of positive control (Avandia) | 34 +/− 2 % of positive control (Avandia) |  | 21 +/− 2 % of positive control (Avandia) | CCCCC/C=C\CC1CC1/C=C/C(O)C/C=C\CCCC(=O)OC (stereo not shown) [PBT-1, 8-hydroxy-11,12-cyclopropyl-eicosa-5Z,9E,14Z-trienoic acid methyl ester, reference compound] |  | 58 +/− 12 % of positive control (Avandia)
3 |  |  |  |  |  |  |  | active | 16 +/− 4 % of positive control (Avandia) | CCCCC/C=C\CC1CC1/C=C/C(O)C/C=C\CCCC(=O)O (stereo not shown) [PBT-01, 8-hydroxy-11,12-cyclopropyl-eicosa-5Z,9E,14Z-trienoic acid, reference compound] |  | 
4 |  |  |  |  |  |  |  |  | 27 +/− 5 % of positive control (Avandia) | CCCCC/C=C\CC1CC1/C=C/C(O)C/C=C\CCCC(=O)OC (stereo not shown) [PBT-2, 8-hydroxy-11,12-cyclopropyl-eicosa-5Z,9E,14Z-trienoic acid methyl ester, reference compound] |  | 
5 |  |  |  |  |  |  |  | active | 17 +/− 2 % of positive control (Avandia) | CCCCC/C=C\CC1CC1/C=C/C(O)C/C=C\CCCC(=O)O (stereo not shown) [PBT-02, 8-hydroxy-11,12-cyclopropyl-eicosa-5Z,9E,14Z-trienoic acid, reference compound] |  | 
6 |  |  |  |  |  |  |  | active | 14 +/− 4 % of positive control (Avandia) | CCCCC/C=C\CC1CC1C(O)/C=C\C/C=C\CCCC(=O)O (stereo not shown) [PBT-03, 10-hydroxy-11,12-cyclopropyl-eicosa-5Z,8Z,14Z-trienoic acid, reference compound] |  | 

Row | SMILES | PPAR Activation as % of positive control (Avandia) (Experiment 1, 0.1 microM) | PPAR Activation as % of positive control (Avandia) (Experiment 1, 1 microM) | PPAR Activation as % of positive control (Avandia) (Experiment 1, 10 microM) | PPAR Activation as % of positive control (Avandia) (Experiment 2, 0.1 microM) | PPAR Activation as % of positive control (Avandia) (Experiment 2, 1 microM) | PPAR Activation as % of positive control (Avandia) (Experiment 3, 0.1 microM) | PPAR Activation as % of positive control (Avandia) (Experiment 3, 1 microM) | PPAR gamma transactivation, result in words | PPAR Activation as % of positive control (Avandia) (10 microM racemate, Table 3) | PPAR Activation as % of positive control (Avandia) (Experiment 2, 10 microM) | PPAR Activation as % of positive control (Avandia) (Experiment 3, 10 microM)
7 | CCCCC/C=C\C[C@@H]1C[C@H]1/C=C/[C@@H](O)C/C=C\CCCC(=O)OC [Compound F, 8S-hydroxy-11R,12R-cyclopropyl-eicosa-5Z,9E,14Z-trienoic acid methyl ester] | 7 +/− 1 % of positive control (Avandia) | 12 +/− 7 % of positive control (Avandia) | 92 +/− 7 % of positive control (Avandia) | 5 +/− 1 % of positive control (Avandia) | 5 +/− 5 % of positive control (Avandia) | 8 +/− 2 % of positive control (Avandia) | 18 +/− 5 % of positive control (Avandia) | significantly more activity than Compound E or the racemic mixture of PBT-1; also recorded: significantly better PPAR gamma transactivation activity; also recorded: higher fold PPAR gamma transactivation than compound E or the PBT-1 racemic mixture |  | 69 +/− 12 % of positive control (Avandia) | 78 +/− 34 % of positive control (Avandia)
